Laboratory results as given in ChEMBL document CHEMBL3885861, “Open TG-GATES”.

Organism: Rattus norvegicus
Assay: Open TG-GATES - Regimen: Daily Repeat
Format: toxicity, organism-based, Sprague-Dawley
Parameters: regimen Daily Repeat, gender Male, age 6 weeks
Conditions: in vivo, iv, 300 mg/kg, route intravenous injection, dose level Low; for APTT / Bas / Eos / Fbg / Hb / Ht / Lym / MCH / MCHC / MCV / Mono / Neu / PT / Plat / RBC / Ret / WBC: tissue Blood; for KIDNEY_L / KIDNEY_R / KIDNEY_TOTAL: tissue Kidney; for LIVER: tissue Liver; for ALP / ALT / AST / BUN / CRE / Ca / Cl / DBIL / GLC / IP / K / LDH / Na / PL / RALB / TBIL / TC / TG / TP / gamma-GTP: tissue Plasma

## CC(=O)OCC1=C(C(=O)O)N2C(=O)[C@@H](NC(=O)Cc3cccs3)[C@H]2SC1 [CEPHALOTHIN]
72 h, time 3 day
  TERMINAL_BW: 226.8 g
  APTT: 22.4 s
  Bas: 0%
  Eos: 1.2%
  Fbg: 291.2 mg/dL
  Hb: 13.4 g/dL
  Ht: 38.4%
  Lym: 84.4%
  MCH: 21.1 pg
  MCHC: 35%
  MCV: 60.2 fL
  Mono: 2.8%
  Neu: 10.6%
  PT: 16.2 s
  Plat: 131.5 x10_4/uL
  RBC: 636.8 x10_4/ul
  Ret: 6%
  WBC: 103.7 x10_2/uL
  KIDNEY_L: 1 g
  KIDNEY_R: 1 g
  KIDNEY_TOTAL: 1.9 g
  LIVER: 10.3 g
  ALP: 1513.6 IU/L
  ALT: 37.8 IU/L
  AST: 68.2 IU/L
  BUN: 15.6 mg/dL
  CRE: 0.1 mg/dL
  Ca: 10.7 mg/dL
  Cl: 106 meq/L
  DBIL: 0 mg/dL
  GLC: 175.4 mg/dL
  IP: 6.1 mg/dL
  K: 4.6 meq/L
  LDH: 166 IU/L
  Na: 140.4 meq/L
  PL: 140 mg/dL
  RALB: 3.1 g/dL
  TBIL: 0.008 mg/dL
  TC: 75.8 mg/dL
  TG: 106.4 mg/dL
  TP: 5.5 g/dL
  gamma-GTP: 1.6 IU/L
[…], time 7 day
  TERMINAL_BW: 260.2 g
  APTT: 22.5 s
  Bas: 0%
  Eos: 0.8%
  Fbg: 310 mg/dL
  Hb: 13.5 g/dL
  Ht: 38.9%
  Lym: 88.8%
  MCH: 20.8 pg
  MCHC: 34.6%
  MCV: 60.2 fL
  Mono: 1.6%
  Neu: 7.8%
  PT: 16.7 s
  Plat: 122.1 x10_4/uL
  RBC: 647 x10_4/ul
  Ret: 5.6%
  WBC: 91 x10_2/uL
  KIDNEY_L: 1.1 g
  KIDNEY_R: 1.1 g
  KIDNEY_TOTAL: 2.1 g
  LIVER: 11.8 g
  ALP: 1472.6 IU/L
  ALT: 34.4 IU/L
  AST: 68.2 IU/L
  BUN: 17.8 mg/dL
  CRE: 0.2 mg/dL
  Ca: 10.6 mg/dL
  Cl: 106.2 meq/L
  DBIL: 0 mg/dL
  GLC: 174.4 mg/dL
  IP: 7 mg/dL
  K: 4.4 meq/L
  LDH: 178.2 IU/L
  Na: 141.4 meq/L
  PL: 144.6 mg/dL
  RALB: 3 g/dL
  TBIL: 0.004 mg/dL
  TC: 71.2 mg/dL
  TG: 146.8 mg/dL
  TP: 5.5 g/dL
  gamma-GTP: 1.6 IU/L
[…], time 14 day
  TERMINAL_BW: 304.3 g
  APTT: 24.3 s
  Bas: 0%
  Eos: 1%
  Fbg: 257.6 mg/dL
  Hb: 14.4 g/dL
  Ht: 40.4%
  Lym: 89.8%
  MCH: 20.7 pg
  MCHC: 35.6%
  MCV: 58.2 fL
  Mono: 1.8%
  Neu: 6.8%
  PT: 16.1 s
  Plat: 121.1 x10_4/uL
  RBC: 694 x10_4/ul
  Ret: 4.7%
  WBC: 103.2 x10_2/uL
  KIDNEY_L: 1.2 g
  KIDNEY_R: 1.3 g
  KIDNEY_TOTAL: 2.5 g
  LIVER: 12.3 g
  ALP: 1293.4 IU/L
  ALT: 29.6 IU/L
  AST: 57.8 IU/L
  BUN: 16.8 mg/dL
  CRE: 0.2 mg/dL
  Ca: 10.9 mg/dL
  Cl: 106.2 meq/L
  DBIL: 0 mg/dL
  GLC: 179.4 mg/dL
  IP: 6.9 mg/dL
  K: 4.2 meq/L
  LDH: 109.2 IU/L
  Na: 142.2 meq/L
  PL: 142.6 mg/dL
  RALB: 3.1 g/dL
  TBIL: 0.01 mg/dL
  TC: 75 mg/dL
  TG: 103.4 mg/dL
  TP: 5.7 g/dL
  gamma-GTP: 2 IU/L
[…], time 28 day
  TERMINAL_BW: 378.7 g
  APTT: 25.4 s
  Bas: 0%
  Eos: 1.6%
  Fbg: 293.8 mg/dL
  Hb: 15.4 g/dL
  Ht: 42.1%
  Lym: 87.4%
  MCH: 19.1 pg
  MCHC: 36.6%
  MCV: 52.3 fL
  Mono: 2.4%
  Neu: 8.2%
  PT: 16.2 s
  Plat: 107.1 x10_4/uL
  RBC: 805.4 x10_4/ul
  Ret: 2.3%
  WBC: 92.3 x10_2/uL
  KIDNEY_L: 1.4 g
  KIDNEY_R: 1.4 g
  KIDNEY_TOTAL: 2.8 g
  LIVER: 14.2 g
  ALP: 1007.4 IU/L
  ALT: 30.4 IU/L
  AST: 58.8 IU/L
  BUN: 16.6 mg/dL
  CRE: 0.2 mg/dL
  Ca: 10.5 mg/dL
  Cl: 106.8 meq/L
  DBIL: 0.004 mg/dL
  GLC: 168.4 mg/dL
  IP: 5.6 mg/dL
  K: 4.1 meq/L
  LDH: 158 IU/L
  Na: 143.2 meq/L
  PL: 134.2 mg/dL
  RALB: 3.1 g/dL
  TBIL: 0.006 mg/dL
  TC: 65.6 mg/dL
  TG: 141.2 mg/dL
  TP: 5.9 g/dL
  gamma-GTP: 1 IU/L
